Source: patent publication US8445503B2, “Inhibitors of polo-like kinase” (Elan Pharmaceuticals, Inc., priority 2009, dated 2013)
Where two headings read alike, the source gives them in different places.

Assays:
Assay type in all cases: biochemical
GST-PLK2 = biological target: T1, GST-PLK2 (Homo sapiens, UniProt Q9NYY3); test: PLK TR-FRET peptide assay, PLK2; conditions: for IC50: PLK TR-FRET peptide assay, GST-PLK2, read-out: Plk2 IC50
T1 construct: purchased CarnaBio

GST-PLK3 = biological target: T2, GST-PLK3 (Homo sapiens, UniProt Q9H4B4); test: PLK TR-FRET peptide assay, PLK3; conditions: read-out: Plk3 IC50
T2 construct: purchased CarnaBio
T2 sequence (Q9H4B4 whole entry): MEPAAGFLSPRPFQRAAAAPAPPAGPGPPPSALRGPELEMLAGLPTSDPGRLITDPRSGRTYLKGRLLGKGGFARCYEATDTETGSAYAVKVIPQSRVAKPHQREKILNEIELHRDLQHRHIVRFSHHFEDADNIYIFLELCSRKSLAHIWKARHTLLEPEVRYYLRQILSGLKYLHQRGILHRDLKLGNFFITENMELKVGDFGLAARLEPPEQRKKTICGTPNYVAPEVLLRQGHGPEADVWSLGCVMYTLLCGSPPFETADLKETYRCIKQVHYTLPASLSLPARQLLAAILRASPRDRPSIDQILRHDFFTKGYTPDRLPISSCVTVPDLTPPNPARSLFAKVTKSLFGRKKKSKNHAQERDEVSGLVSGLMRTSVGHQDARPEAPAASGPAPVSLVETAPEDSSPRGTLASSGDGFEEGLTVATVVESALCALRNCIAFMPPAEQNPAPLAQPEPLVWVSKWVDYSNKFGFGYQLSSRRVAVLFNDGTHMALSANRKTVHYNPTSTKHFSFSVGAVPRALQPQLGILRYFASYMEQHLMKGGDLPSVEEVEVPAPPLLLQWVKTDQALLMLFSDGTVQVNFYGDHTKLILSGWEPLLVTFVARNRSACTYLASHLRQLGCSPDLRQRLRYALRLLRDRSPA

GST-PLK1 = GST-PLK1 (Homo sapiens, UniProt P53350); test: PLK TR-FRET peptide assay, PLK1; conditions: read-out: Plk1 IC50
GST-PLK1, sequence (P53350 whole entry): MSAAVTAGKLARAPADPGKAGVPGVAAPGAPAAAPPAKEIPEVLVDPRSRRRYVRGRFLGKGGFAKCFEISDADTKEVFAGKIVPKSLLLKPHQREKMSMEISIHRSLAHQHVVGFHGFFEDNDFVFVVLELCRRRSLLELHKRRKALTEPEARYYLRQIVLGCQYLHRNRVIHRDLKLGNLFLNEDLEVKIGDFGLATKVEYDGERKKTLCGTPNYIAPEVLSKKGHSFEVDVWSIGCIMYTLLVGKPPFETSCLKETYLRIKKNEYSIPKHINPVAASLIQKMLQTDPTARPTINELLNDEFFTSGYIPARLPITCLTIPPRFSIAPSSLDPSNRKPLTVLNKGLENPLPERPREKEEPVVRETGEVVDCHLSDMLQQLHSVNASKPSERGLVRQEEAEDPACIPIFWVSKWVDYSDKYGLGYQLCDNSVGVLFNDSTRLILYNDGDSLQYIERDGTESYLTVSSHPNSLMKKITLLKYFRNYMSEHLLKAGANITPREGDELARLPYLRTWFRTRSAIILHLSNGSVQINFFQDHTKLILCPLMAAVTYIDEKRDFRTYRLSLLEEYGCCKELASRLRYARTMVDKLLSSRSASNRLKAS

[1] = PLK TR-FRET peptide assay, GST-PLK3

T1 sequence (Q9NYY3 whole entry): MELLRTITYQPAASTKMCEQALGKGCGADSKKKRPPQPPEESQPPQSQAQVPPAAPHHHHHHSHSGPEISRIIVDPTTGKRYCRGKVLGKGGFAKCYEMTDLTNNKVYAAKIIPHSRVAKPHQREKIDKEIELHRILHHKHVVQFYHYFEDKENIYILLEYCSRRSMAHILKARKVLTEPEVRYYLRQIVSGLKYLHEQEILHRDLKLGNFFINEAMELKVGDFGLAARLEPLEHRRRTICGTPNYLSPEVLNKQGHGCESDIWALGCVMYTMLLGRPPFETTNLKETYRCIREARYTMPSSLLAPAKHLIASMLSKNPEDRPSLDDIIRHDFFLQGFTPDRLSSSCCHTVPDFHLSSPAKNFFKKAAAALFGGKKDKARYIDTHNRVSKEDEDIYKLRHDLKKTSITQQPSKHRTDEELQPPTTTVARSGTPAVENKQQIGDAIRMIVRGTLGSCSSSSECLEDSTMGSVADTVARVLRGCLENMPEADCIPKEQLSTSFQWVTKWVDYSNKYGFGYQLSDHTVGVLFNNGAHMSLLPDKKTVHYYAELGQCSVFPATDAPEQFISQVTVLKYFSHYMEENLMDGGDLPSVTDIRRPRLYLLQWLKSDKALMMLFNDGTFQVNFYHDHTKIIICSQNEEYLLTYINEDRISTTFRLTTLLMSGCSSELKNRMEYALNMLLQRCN

Row | SMILES | IC50 (GST-PLK2) | IC50 (GST-PLK3; [1]) | IC50 (GST-PLK1) | IC50 (GST-PLK3) | PLK2 activity relative to the opposite enantiomer / other isomer (GST-PLK2; comparison of resolved enantiomers, used to assign absolute configuration)
1 | CCC1C(=O)Nc2cnc(-n3ccnc3-c3ccccc3)nc2N1NC(=O)OC(C)(C)C (stereo not drawn) [Example 274, tert-Butyl 7-ethyl-6-oxo-2-(2-phenyl-1H-imidazol-1-yl)-6,7-dihydropteridin-8(5H)-ylcarbamate] | > 50 µM | > 50 µM | > 50 µM |  | 
2 | CCC12COCCN1c1nc(-c3cn[nH]c3-c3ccc(F)cc3F)ncc1N(C)C2=O (racemic) [Example 405, 2-(5-(2,4-difluorophenyl)-1H-pyrazol-4-yl)-6a-ethyl-5-methyl-6a,7,9,10-tetrahydro-[1,4]oxazino[3,4-h]pteridin-6(5H)-one] | < 1 µM | 1 to 10 µM | 10 to 50 µM |  | 
3 | CC[C@@H]1C(=O)N(C)c2cnc(-n3ccnc3-c3ccc(F)cc3)nc2N1C1COC1 [Example 328, (R)-7-ethyl-2-(2-(4-fluorophenyl)-1H-imidazol-1-yl)-5-methyl-8-(oxetan-3-yl)-7,8-dihydropteridin-6(5H)-one] | 1 to 10 µM | > 50 µM | > 50 µM |  | 
4 | CCC1C(=O)N(C)c2cnc(-n3ccnc3-c3ccccc3)nc2N1N (stereo not drawn) [Example 278, 8-amino-7-ethyl-5-methyl-2-(2-phenyl-1H-imidazol-1-yl)-7,8-dihydropteridin-6(5H)-one] | < 1 µM | 10 to 50 µM | 10 to 50 µM |  | 
5 | CC[C@]12COCCN1c1nc(-n3ccnc3-c3ccccc3)ncc1N(C)C2=O (single isomer, unassigned) [Example 315] | 10 to 50 µM | > 50 µM | > 50 µM |  | 
6 | CC[C@@H]1C(=O)N(C)c2cnc(N3CCN=C3c3ccccc3)nc2N1C(C)C [Example 246, (R)-7-ethyl-8-isopropyl-5-methyl-2-(2-phenyl-4,5-dihydro-1H-imidazol-1-yl)-7,8-dihydropteridin-6(5H)-one] |  |  |  | 1 to 10 µM | 
7 | CC[C@@]12CCCN1c1nc(-n3ccnc3-c3ccncc3)ncc1N(C)C2=O [Example 101, (S)-6a-ethyl-5-methyl-2-(2-(pyridin-4-yl)-1H-imidazol-1-yl)-6a,7,8,9-tetrahydropyrrolo[2,1-h]pteridin-6(5H)-one] | < 1 µM | 10 to 50 µM | 10 to 50 µM |  | 
8 | CC[C@@]12COCCN1c1nc(-c3ccncc3-c3ccccc3)ncc1N(C)C2=O [Example 395] | < 1 µM | 1 to 10 µM | < 1 µM |  | 
9 | CC[C@@H]1C(=O)N(C)c2cnc(-n3cnc(-c4cccnc4)c3)nc2N1C1CCCC1 [Example 59, (R)-8-cyclopentyl-7-ethyl-5-methyl-2-(4-(pyridin-3-yl)-1H-imidazol-1-yl)-7,8-dihydropteridin-6(5H)-one] | < 1 µM | 1 to 10 µM | < 1 µM |  | 
10 | CC[C@]12COCCN1c1nc(-c3cn[nH]c3-c3ccc(F)cc3F)ncc1N(C)C2=O [Example 412, (R)-2-(5-(2,4-difluorophenyl)-1H-pyrazol-4-yl)-6a-ethyl-5-methyl-6a,7,9,10-tetrahydro-[1,4]oxazino[3,4-h]pteridin-6(5H)-one] | 1 to 10 µM | > 50 µM | > 50 µM |  | 
11 | CC[C@@H]1CC[C@@]2(CC)C(=O)N(C)c3cnc(-n4ccnc4-c4ccccc4)nc3N12 [Example 309, (6aS,9R)-6a,9-diethyl-5-methyl-2-(2-phenyl-1H-imidazol-1-yl)-6a,7,8,9-tetrahydropyrrolo[2,1-h]pteridin-6(5H)-one] | < 1 µM | < 1 µM | < 1 µM |  | 
12 | CC[C@@H]1C(=O)N(C)c2cnc(-c3cn[nH]c3-c3ccccn3)nc2N1C1CCCC1 [Example 306, (R)-8-cyclopentyl-7-ethyl-5-methyl-2-(5-(pyridin-2-yl)-1H-pyrazol-4-yl)-7,8-dihydropteridin-6(5H)-one] | < 1 µM | < 1 µM | < 1 µM |  | 
13 | CC[C@@H]1C(=O)N(C)c2cnc(-n3ccnc3)nc2N1C1CCOC1 (single isomer, unassigned) [Example 299] | < 1 µM | 10 to 50 µM | 1 to 10 µM |  | 
14 | CN1C(=O)C23CCC(CC2)N3c2nc(-n3ccnc3-c3ccccc3)ncc21 [Example 308, 5-methyl-2-(2-phenyl-1H-imidazol-1-yl)-8,9-dihydro-7H-6a,9-ethanopyrrolo[2,1-h]pteridin-6(5H)-one] | 1 to 10 µM | > 50 µM | 10 to 50 µM |  | 
15 | CC[C@@H]1C(=O)N(C)c2cnc(-n3ccnc3-c3cccnc3)nc2N1C(C)C [Example 154, (R)-7-ethyl-8-isopropyl-5-methyl-2-(2-(pyridin-3-yl)-1H-imidazol-1-yl)-7,8-dihydropteridin-6(5H)-one] | < 1 µM | 10 to 50 µM | 1 to 10 µM |  | 
16 | CC[C@@H]1C(=O)N(C)c2cnc(-n3ccc(=N)cc3)nc2N1C1CCCC1 [Example 73, (R)-8-cyclopentyl-7-ethyl-2-(4-iminopyridin-1(4H)-yl)-5-methyl-7,8-dihydropteridin-6(5H)-one] | 1 to 10 µM | > 50 µM | 10 to 50 µM |  | 
17 | CC[C@@H]1C(=O)N(C)c2cnc(-n3ccnc3-c3nccs3)nc2N1C1CCOCC1 [Example 157, (R)-7-ethyl-5-methyl-8-(tetrahydro-2H-pyran-4-yl)-2-(2-(thiazol-2-yl)-1H-imidazol-1-yl)-7,8-dihydropteridin-6(5H)-one] | < 1 µM | 10 to 50 µM | 1 to 10 µM |  | 
18 | CC[C@]12COCCN1c1nc(-c3cnoc3-c3ccccc3)ncc1N(C)C2=O [Example 414, (R)-6a-ethyl-5-methyl-2-(5-phenylisoxazol-4-yl)-6a,7,9,10-tetrahydro-[1,4]oxazino[3,4-h]pteridin-6(5H)-one] | > 50 µM | > 50 µM | > 50 µM |  | 
19 | CC[C@@H]1C(=O)N(C)c2cnc(-n3ccnc3-c3ncccn3)nc2N1C1CCC1 [Example 183, (R)-8-cyclobutyl-7-ethyl-5-methyl-2-(2-(pyrimidin-2-yl)-1H-imidazol-1-yl)-7,8-dihydropteridin-6(5H)-one] | < 1 µM | 10 to 50 µM | 1 to 10 µM |  | 

Row | SMILES | IC50 (GST-PLK2) | IC50 (GST-PLK3; [1]) | IC50 (GST-PLK1) | IC50 (GST-PLK3) | PLK2 activity relative to the opposite enantiomer / other isomer (GST-PLK2; comparison of resolved enantiomers, used to assign absolute configuration)
20 | CC[C@@H]1C(=O)N(C)c2cnc(-c3cn(C)nc3-c3nccs3)nc2N1c1cnn(C)c1 [Example 417, (R)-7-ethyl-5-methyl-8-(1-methyl-1H-pyrazol-4-yl)-2-(1-methyl-3-(thiazol-2-yl)-1H-pyrazol-4-yl)-7,8-dihydropteridin-6(5H)-one] | < 1 µM | > 50 µM | 10 to 50 µM |  | 
21 | CC[C@@H]1C(=O)N(C)c2cnc(-n3ncnc3-c3ccccc3)nc2N1C(C)C [Example 195, (R)-7-ethyl-8-isopropyl-5-methyl-2-(5-phenyl-1H-1,2,4-triazol-1-yl)-7,8-dihydropteridin-6(5H)-one] | < 1 µM | < 1 µM | < 1 µM |  | 
22 | CC[C@@H]1C(=O)N(C)c2cnc(-n3ccnc3-c3ccccc3)nc2N1CCC(F)(F)F [Example 190] |  | 1 to 10 µM |  |  | 
23 | CC[C@@H]1C(=O)N(C)c2cnc(-c3cc[n+]([O-])cc3)nc2N1C1CCCC1 [Example 13, (R)-4-(8-cyclopentyl-7-ethyl-5-methyl-6-oxo-5,6,7,8-tetrahydropteridin-2-yl)pyridine 1-oxide] | 1 to 10 µM |  | 1 to 10 µM |  | 
24 | CN1C(=O)C(CC(F)(F)F)N(CCC(F)(F)F)c2nc(-n3ccnc3-c3ccc(F)cc3)ncc21 (stereo not drawn) [Example 255] |  | 10 to 50 µM |  |  | 
25 | CC[C@@H]1C(=O)N(C)c2cnc(-n3ccnc3-c3ccccc3)nc2N1C1CCOC1 (stereo partly drawn) [Example 203] |  | 1 to 10 µM |  |  | 
26 | CC[C@@H]1C(=O)N(C)c2cnc(-n3ccnc3-c3ccc(F)cc3)nc2N1C1CCC(F)(F)C1 (stereo partly drawn) [Example 242] |  | 1 to 10 µM |  |  | 
27 | CC[C@@H]1C(=O)N(C)c2cnc(-n3ccnc3-c3ccc(F)cc3)nc2N1CCC(F)(F)F [Example 233] |  | 10 to 50 µM |  |  | 
28 | CC[C@@H]1C(=O)N(C)c2cnc(-n3ccnc3-c3ccccc3)nc2N1C1CCOC1 (stereo partly drawn) [Example 182] |  | < 1 µM |  |  | 
29 | CCC1C(=O)N(C)c2cnc(-n3ccnc3-c3ccc(F)cc3)nc2N1c1ccc(F)cc1 (stereo not drawn) [Example 324] |  | 1 to 10 µM |  |  | 
30 | CC[C@@]12COCCN1c1nc(-n3ccnc3-c3ccccc3)ncc1NC2=O [Example 418, (S)-6a-ethyl-2-(2-phenyl-1H-imidazol-1-yl)-6a,7,9,10-tetrahydro-[1,4]oxazino[3,4-h]pteridin-6(5H)-one] |  |  |  |  | more active compound
31 | CC[C@@H]1C(=O)N(C)c2cnc(-c3ccnc(O)c3)nc2N1C1CCCC1 [Example 14, (R)-8-cyclopentyl-7-ethyl-2-(2-hydroxypyridin-4-yl)-5-methyl-7,8-dihydropteridin-6(5H)-one] | < 1 µM |  | < 1 µM |  | 
32 | CC[C@@H]1C(=O)N(C)c2cnc(-c3cn[nH]c3)nc2N1C1CCCC1 [Example 7, (R)-8-cyclopentyl-7-ethyl-5-methyl-2-(1H-pyrazol-4-yl)-7,8-dihydropteridin-6(5H)-one] | < 1 µM |  | < 1 µM |  | 
33 | CC[C@@H]1C(=O)N(C)c2cnc(-n3cc(C(=O)NC)cn3)nc2N1C1CCCC1 [Example 40, (R)-1-(8-cyclopentyl-7-ethyl-5-methyl-6-oxo-5,6,7,8-tetrahydropteridin-2-yl)-N-methyl-1H-pyrazole-4-carboxamide] |  | 10 to 50 µM | < 1 µM |  | 
34 | CC[C@@H]1C(=O)N(C)c2cnc(-c3cn[nH]c3-c3nccs3)nc2N1C1CCOCC1 [Example 349] |  | < 1 µM |  |  | 
35 | CC[C@@H]1C(=O)N(C)c2cnc(-n3ccnc3-c3ccc(F)cc3)nc2N1C1CC(F)(F)C1 [Example 247] |  | 10 to 50 µM |  |  | 
36 | CC[C@@H]1C(=O)N(C)c2cnc(-n3ccc4ccccc43)nc2N1C1CCCC1 [Example 385] |  | > 50 µM |  |  | 
37 | CC[C@@]12CCCN1c1nc(-n3ccnc3-c3cccc(Br)c3)ncc1N(C)C2=O [Example 252] | < 1 µM |  |  |  | 
